The values below come from article PMC10468298, “Umami taste perception and preferences of the domestic cat (Felis catus), an obligate carnivore” (Chemical Senses, 2023).

As a reminder, the EC50 is the concentration needed to bring the measured effect to its halfway point.

Data set [1] has as its system cats. The data set is described as follows: 2-bottle taste choice test, cat water panel, 18-h exposure. It is filed as in vivo, domestic cat (Felis catus). The method, then:
The minimum panel size was n = 14, but only for one study with 80 mM MSG; in all other cases, the minimum panel size was n = 21. The maximum panel size was n = 24. […] For those cases, we have also reported the number of unique cats, as some cats were present in more than one study. All cats on the panel had previously been habituated and screened for suitability to perform this type of study. […] The cats were re-homed once they completed their tenure at the Waltham Petcare Science Institute, as per standard Waltham practice.
Solutions were made with deionized water (Purite, UK). […] In some cases, salts were purchased instead of the pure compound due to solubility, stability, or availability. For all the solutions, the pH range spanned approximately 5–8.
Choice tests for the taste compound solutions at specific concentrations were run over an 18-h period using a 2-bottle testing apparatus. […] All animal studies conformed with the Mars Animal Research Policy (www.Mars.com) and were approved by the Waltham Animal Welfare and Ethical Review Body.
Using a bespoke statistical analysis toolkit, based on R software (R Foundation, Vienna, Austria), a mixed model analysis was performed on the difference in intake (g) between water solutions, including cat (random) as a factor where appropriate. This was used to test the mean intake difference versus 0, i.e. no difference, at a 5% significance level. The mean difference in intake was reported with a 95% confidence interval. Any data errors (e.g. following manual error such as solution spillage, overflow) were removed from the final data set for analysis.

Data set [2] concerns cats. Description: Taste choice test, cat water panel, 1-hr exposure. It is filed as in vivo, domestic cat (Felis catus). The method, then:
All taste choice tests with 1-hr exposure period were run as outlined in the Materials and Methods, with the following differences. The minimum panel size was n = 24 and the maximum panel size was n = 25. […] The cats were water-restricted for 1-hr prior to the 1-hr water exposure period, with their first meal given in the last 20-min of the water restriction. 50 mL of each test solution was offered to the cats in round water bowls with a maximum capacity 150 mL (Flyte So Fancy, UK), which were held in bespoke bowl holders (TECHNIK – A Division of Syspal Ltd., UK).

For data set [3], the target named is T1, cat Tas1r1-Tas1r3 (Felis catus, UniProt A0ABI7Z2I4). On the set-up: method as in Toda et al. 2021. The note with it: ref Toda et al. 2021, cited from earlier work; for Activation of cat Tas1r1-Tas1r3: tested alone.
Data set [4] has as its target T1, cat Tas1r1-Tas1r3. Description: Calcium mobilization assay (FLIPR) in HEK293T cells expressing cat Tas1r1-Tas1r3 and mGα15i1. Conditions: for Activity as agonist or enhancer of the cat umami receptor: alone and with 0.2 mM IMP. On the technique in general: Calcium assays in cells follow changes in intracellular calcium, usually with a dye or a luminescent sensor.
Description: Cat Tas1r1 and cat Tas1r3 were also stably transfected, but the GeneSwitch system (Invitrogen) was used, resulting in expression which had to be induced by adding 0.1 nM mifepristone to the cells 48 h prior to the experiment. […] Expression constructs were transfected into the HEK293T cell line using Lipofectamine 2000 according to the manufacturer’s recommendations. […] The cell line was maintained in Dulbecco’s MEM High-Glucose supplemented with Glutamax-I (Gibco) and with 10% dialyzed fetal bovine serum, 1% Penicillin/Streptomycin, 100 µg/mL G418, 100 µg/mL Hygromycin, 10 µg/mL Zeocin, 2.5 µg/mL Blasticidin, and 0.5 µg/mL Puromycin.
(§1) These and other test compounds were stored at −20 °C and freshly prepared in the assay buffer on the day of the experiments. […] For the functional expression work, the solubility of amino acids was improved by sonication.
The calcium mobilization experiments were performed using a FLIPR Tetra (Molecular Devices). […] Twenty-four hours later, 0.1 nM mifepristone was added to each well to induce expression of cat Tas1r1 and cat Tas1r3. […] Forty-eight hours after induction with mifepristone, the medium was removed from the cells and 20 μL loading buffer (Tyrode’s buffer + 2 μM Fluo4 AM + 100 μM probenecid) was added, and the plate was incubated for 40 min at 37 °C and then transferred for another 20 min at room temperature. The cells were then washed two times with Tyrode’s buffer using an automated plate washer (Biotek) and incubated for 20 min at room temperature in the dark. The cells were then washed a further two times before being transferred to the FLIPR Tetra.
Concentration–response curves, each with 8 concentration points, were established by plotting signal amplitudes versus agonist concentration. The half maximal effective concentrations (EC50) were identified by nonlinear regression using a variable slope model with the equation Y = Bottom + (X^Hillslope) × (Top-Bottom)/(X^HillSlope + EC50^HillSlope), where Y is the response, and X is the agonist concentration, Top and Bottom are the plateaus in the same units as Y and HillSlope is the Slope factor or Hill slope. All calculations and plots were done using GraphPad Prism 8 (GraphPad Software, CA). […] In these cases, the EC50 was noted as being higher than the maximum concentration used in the assay.
The test system of data set [5] is cats. On the set-up: method as in Beauchamp et al. 1977. The note with it: 10, 20, 40 and 80 mM versus water, 1-h; ref Beauchamp et al. 1977; cited from earlier work.
A further data set relates to cat Tas1r1 VFT. More on the design: method as in Belloir et al. 2017. The note with it: intrinsic tryptophan fluorescence; ref Belloir et al. 2017; cited from earlier work.
Data set [6] relates to cats. The note with it: cited from earlier work; for Behavioral response of cats to the solutions: acidic solutions, ref Beauchamp et al. 1977, McGrane et al. 2013.
Data set [7] deals with cats. More on the design: method as in White and Boudreau 1975. The note with it: 0.5, 5.0 and 50.0 mM in 50 mM saline versus 50 mM saline, 24-h; ref White and Boudreau 1975; cited from earlier work.
Data set [8] can be described thus: Solubility of amino acids in assay buffer / water. Conditions: Tyrode's buffer pH 7.4, sonication.
Description: as §1
Setting [9] is: amino acid 25 mM versus L-Serine 25 mM.
The mark [10] stands for this setting: amino acid 25 mM versus L-Tryptophan 25 mM.
[11] abbreviates: amino acid 25 mM versus L-Asparagine 25 mM.

Like-named read-outs stand apart in the source and are kept apart here.

T1 sequence (A0ABI7Z2I4 entry or part of it): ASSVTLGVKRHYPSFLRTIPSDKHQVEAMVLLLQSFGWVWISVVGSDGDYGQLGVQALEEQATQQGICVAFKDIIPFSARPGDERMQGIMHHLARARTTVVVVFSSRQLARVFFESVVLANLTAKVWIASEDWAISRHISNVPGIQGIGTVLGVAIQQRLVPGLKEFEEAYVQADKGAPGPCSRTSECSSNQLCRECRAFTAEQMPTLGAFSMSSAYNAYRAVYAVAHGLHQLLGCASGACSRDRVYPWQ
T1 sequence (Q49KI5 25-865, further chain): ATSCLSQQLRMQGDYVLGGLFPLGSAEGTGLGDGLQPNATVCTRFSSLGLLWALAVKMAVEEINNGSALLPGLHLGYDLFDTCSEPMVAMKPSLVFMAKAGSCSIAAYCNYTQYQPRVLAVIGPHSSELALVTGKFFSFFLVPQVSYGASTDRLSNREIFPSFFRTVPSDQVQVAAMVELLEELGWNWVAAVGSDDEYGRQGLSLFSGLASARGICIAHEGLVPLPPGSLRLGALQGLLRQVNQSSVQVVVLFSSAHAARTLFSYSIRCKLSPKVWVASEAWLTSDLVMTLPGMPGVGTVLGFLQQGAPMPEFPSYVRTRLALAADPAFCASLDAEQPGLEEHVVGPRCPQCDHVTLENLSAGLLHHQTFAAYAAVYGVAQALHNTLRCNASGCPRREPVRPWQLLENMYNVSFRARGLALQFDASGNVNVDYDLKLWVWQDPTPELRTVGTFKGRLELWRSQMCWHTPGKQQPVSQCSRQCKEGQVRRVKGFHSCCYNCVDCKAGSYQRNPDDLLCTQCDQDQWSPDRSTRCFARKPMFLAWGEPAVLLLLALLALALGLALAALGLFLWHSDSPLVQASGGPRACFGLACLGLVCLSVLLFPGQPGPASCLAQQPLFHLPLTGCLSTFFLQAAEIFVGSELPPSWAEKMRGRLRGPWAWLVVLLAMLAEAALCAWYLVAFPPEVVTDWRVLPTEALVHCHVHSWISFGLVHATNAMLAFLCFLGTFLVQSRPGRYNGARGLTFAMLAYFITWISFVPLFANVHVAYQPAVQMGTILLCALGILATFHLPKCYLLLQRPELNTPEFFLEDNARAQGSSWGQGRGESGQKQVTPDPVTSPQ

For the compound `Nc1ncnc2c1ncn2[C@@H]1O[C@H](COP(=O)(O)O)[C@@H](O)[C@H]1O` [AMP, Adenosine 5ʹ-monophosphate], the Intake diff. in the data set on cats [1] (nucleotide 5 mM versus water) turned out to be 25.4 g; in the data set with cats [2] (nucleotide 5 mM versus water) it was 20.6 g.

Compound `Nc1ccn([C@@H]2O[C@H](COP(=O)(O)O)[C@@H](O)[C@H]2O)c(=O)n1` [CMP, Cytidine 5ʹ-monophosphate] came in with an Intake diff. in the data set with cats [1] (nucleotide 5 mM versus water) of 69.5 g.

`Nc1nc2c(ncn2[C@@H]2O[C@H](COP(=O)(O)O)[C@@H](O)[C@H]2O)c(=O)[nH]1` [GMP, Guanosine 5ʹ-monophosphate] showed an Intake diff. with cats [1] (nucleotide 5 mM versus water) of 78.8 g. For the same compound, the “Concentration at which the assay started to respond” value at cat Tas1r1-Tas1r3 [3] (rat Gα15 chimera) is “around 0.01 mM”; on cat Tas1r1-Tas1r3 [4] (nucleotide alone), “around 0.1 mM”. In addition, the “Activation of cat Tas1r1-Tas1r3” value on cat Tas1r1-Tas1r3 [3] is “strongly activated”. Besides, the EC50 at cat Tas1r1-Tas1r3 [4] worked out at 0.32 mM.

In the case of `NCC(=O)O` [Glycine], the Intake diff. in the data set on cats [1] (amino acid 25 mM versus water) was 20.8 g; with cats [2] (amino acid 25 mM versus water), 9.1 g. Moreover, the “Behavioral response of cats” value in the data set on cats [5] is listed as “indifferent”.

Consider `C[C@H](N)C(=O)O` [L-Alanine, reference compound], for which the Intake diff. in the data set with cats [1] (amino acid 25 mM versus water) was determined as 30.5 g; in the data set with cats [2] (amino acid 25 mM versus water), 16.9 g. Further, the “Ligand binding to cat Tas1r1 VFT (conformational change)” value with cat Tas1r1 VFT is on record as “active”. Further, the “Behavioral response of cats” value in the data set on cats [5] is given as “may be preferred to water”. The EC50 on cat Tas1r1-Tas1r3 [4] turned out to be 15.5 mM.

For the compound `N=C(N)NCCC[C@H](N)C(=O)O` [L-Arginine], the “Ligand binding to cat Tas1r1 VFT (conformational change)” value in the data set on cat Tas1r1 VFT is given as “active”.

Take `NC(=O)C[C@H](N)C(=O)O` [L-Asparagine]: the results for the Intake diff. with cats [1] (setting [9]), in the data set with cats [1] (setting [10]) and with cats [1] (amino acid 25 mM versus water) were 12.0 g, -20.9 g and 35.9 g, respectively. In addition, the EC50 at cat Tas1r1-Tas1r3 [4] (read-out: wIMP EC50, L-amino acid with 0.2 mM IMP) stood at 15.7 mM.

On to `N[C@@H](CC(=O)O)C(=O)O` [L-Aspartic acid], for which the “Behavioral response of cats to the solutions” value with cats [6] is “avoided”. Besides, the “Activity as agonist or enhancer of the cat umami receptor” value (“Activity as agonist or enhancer” below) at cat Tas1r1-Tas1r3 [4] is “did not respond”.

`N[C@@H](CS)C(=O)O` [L-Cysteine]: the Intake diff. in the data set with cats [1] (amino acid 25 mM versus water) is 48.3 g; in the data set on cats [2] (amino acid 25 mM versus water) it was 27.9 g. In addition, in the data set on cat Tas1r1 VFT, the “Ligand binding to cat Tas1r1 VFT (conformational change)” value is “inactive”. Moreover, on cat Tas1r1-Tas1r3 [4], the EC50 was 13.1 mM.

`N[C@@H](CCC(=O)O)C(=O)O` [L-Glutamic acid]: the “Activation of cat Tas1r1-Tas1r3” value at cat Tas1r1-Tas1r3 [3] is “inactive alone”. Besides, the “Behavioral response of cats” value in the data set on cats [5] is on record as “avoided”. In addition, in the data set with cats [6], the “Behavioral response of cats to the solutions” value is on record as “avoided”. On cat Tas1r1-Tas1r3 [4], the “Activity as agonist or enhancer” value is listed as “did not respond”.

Turning to `N[C@@H](Cc1c[nH]cn1)C(=O)O` [L-Histidine], the Intake diff. came out at 77.0 g in the data set on cats [1] (setting [11]), 91.5 g with cats [1] (setting [9]), 97.0 g in the data set on cats [1] (setting [10]) and 43.7 g with cats [1] (amino acid 25 mM versus water). In addition, in the data set on cat Tas1r1 VFT, the “Ligand binding to cat Tas1r1 VFT (conformational change)” value is reported as “active”. In addition, in the data set on cats [7], the “Behavioral response of cats” value is given as “preferred”. The “Behavioral preference of cats” value in the data set with cats [6] (100 mM, ref McGrane et al. 2013) is “significant behavioral preference”. For the same compound, the EC50 at cat Tas1r1-Tas1r3 [4] turned out to be 9.71 mM.

As for `CC[C@H](C)[C@H](N)C(=O)O` [L-Isoleucine], the “Ligand binding to cat Tas1r1 VFT (conformational change)” value in the data set on cat Tas1r1 VFT was “active”.

On to `CC(C)C[C@H](N)C(=O)O` [L-Leucine], for which the Intake diff. in the data set with cats [1] (amino acid 25 mM versus water) is 36.6 g; in the data set on cats [2] (amino acid 25 mM versus water) it was 22.5 g. For the same compound, the EC50 at cat Tas1r1-Tas1r3 [4] was found to be 31.7 mM.

For `CSCC[C@H](N)C(=O)O` [L-Methionine], the Intake diff. with cats [1] (amino acid 25 mM versus water) is 35.8 g. Besides, the EC50 at cat Tas1r1-Tas1r3 [4] was more than 30 mM.

For `N[C@@H](Cc1ccccc1)C(=O)O` [L-Phenylalanine], the Intake diff. amounted to 34.5 g with cats [1] (amino acid 25 mM versus water) and 19.4 g with cats [2] (amino acid 25 mM versus water).

Consider `N[C@@H](CO)C(=O)O` [L-Serine], for which the Intake diff. in the data set with cats [1] (amino acid 25 mM versus water) was 25.3 g; in the data set with cats [2] (amino acid 25 mM versus water) it was 18.0 g. Further, the EC50 on cat Tas1r1-Tas1r3 [4] turned out to be 14.1 mM.

With `N[C@@H](Cc1c[nH]c2ccccc12)C(=O)O` [L-Tryptophan], the Intake diff. is 20.9 g in the data set on cats [1] (setting [11]), -11.6 g in the data set on cats [1] (setting [9]), 8.4 g in the data set on cats [1] (amino acid 25 mM versus water) and 10.0 g with cats [2] (amino acid 25 mM versus water). Besides, the “Behavioral response of cats” value with cats [7] was “avoided”. The “Solubility in assay buffer” value in data set [8] is on record as “insoluble at 60 mM”. Moreover, on cat Tas1r1-Tas1r3 [4], the EC50 amounted to 6.32 mM.

Take `N[C@@H](Cc1ccc(O)cc1)C(=O)O` [L-Tyrosine]: the Intake diff. with cats [1] (amino acid 2.5 mM versus water) is given as -1.8 g. In addition, the concentration giving a half-maximal response (EC50) on cat Tas1r1-Tas1r3 [4] turned out to be 22.2 mM.

With `N[C@@H](CCC(=O)O)C(=O)[O-].[Na+]` [MSG, monosodium glutamate], the Intake diff. is 22.2 g in the data set on cats [1] (MSG 20 mM versus water) and -7.9 g in the data set with cats [1] (MSG 80 mM versus water).

On to `NCCS(=O)(=O)O` [Taurine], for which the “Activity as agonist or enhancer” value on cat Tas1r1-Tas1r3 [4] is “inactive”.

On to `O=c1ccn([C@@H]2O[C@H](COP(=O)(O)O)[C@@H](O)[C@H]2O)c(=O)[nH]1` [UMP, Uridine 5ʹ-monophosphate], for which the Intake diff. in the data set on cats [1] (nucleotide 5 mM versus water) turned out to be 67.0 g.

On to `O=c1[nH]c(=O)c2ncn([C@@H]3O[C@H](COP(=O)(O)O)[C@@H](O)[C@H]3O)c2[nH]1` [XMP, Xanthosine 5ʹ-monophosphate], for which the EC50 at cat Tas1r1-Tas1r3 [4] was 0.48 mM.
